Source: publication PMC11310889, “Ribosomal translation of fluorinated non-canonical amino acids for de novo biologically active fluorinated macrocyclic peptides” (Chemical Science, 2024)

Columns and labels:
[1] = test system: E. coli W3110; experiment: Scanning electron microscopy of cell morphology; assay type: cell-based, Escherichia coli; settings: E. coli W3110 logarithmic-phase, 4 h treatment at 2 μM and 5 μM (Fig. 5B, S11)
Protocol: Thaw the previously preserved E. coli W3110 cells from the -80 °C freezer. […]
Scanning electron microscopy
Thaw the previously preserved E. coli W3110 cells from the -80°C freezer. Scrape a small amount and inoculate it into 1 mL of LB liquid medium. Incubate overnight in a 37°C shaker. The next day, inoculate the strain into fresh LB liquid medium at a 1:100 ratio and incubate at 37°C until the OD600 reaches approximately 0.47 to 0.53. Take 500 μL of E. coli W3110 cells, centrifuge for 10 min at 4000 rpm, and discard the supernatant. Resuspend the cells in 500 μL of PBS, then centrifuge again at 4000 rpm for 10 min and discard the supernatant. Dissolve various macrocyclic peptides in DMSO and dilute to the required concentration. Resuspend the untreated group in 500 μL of PBS.
For the peptide treatment group, resuspend in 495 μL of ddH2O, add 5 μL of 0.2 mM or 0.5 mM peptides, mix well, and let react for 4 h.
After the treament, spot 4 μL of the sample on plates. Perform the first ten-fold dilution and mix, then continue with the second to fifth ten-fold dilutions. Incubate the plates inverted overnight in a 37°C incubator. Scan and count the colonies. For the remaining 492 μL, centrifuge at 6100g for 10 min, discard the supernatant, add 500 μL of ddH2O, and let it stand for 15 min. Centrifuge again at 6100g for 10 min, discard the supernatant, and add 500 μL of ddH2O containing 2.5% glutaraldehyde. Resuspend and fix the cells overnight at 4°C. Centrifuge at 6100g for 10 min, remove the supernatant, and wash twice with ddH2O, letting it stand for 15 min each time, followed by centrifugation at 6100g for 10 min. Discard the supernatant. Dehydrate the sample with ethanol at concentration gradients of 30%, 60%, and 90%, without resuspension, centrifuging at 6100g for […]
10 min and discarding the supernatant after each step. Finally, use 100% ethanol, rest for 15 min, centrifuge at 6100g for 10 min, discard the supernatant, and repeat with 100% ethanol, leaving about 10 μL. Then the critical point was dried and sprayed with gold, and the images were observed by […]
Prediction of binding sites between peptides and the BAM complex
Firstly, the fpocket algorithm was used, a rapid method for pocket prediction based on the three-dimensional structure of BAM complex (PDB ID: 5AYW). This method establishes a grid surrounding the protein, positioning alpha spheres on grid points devoid of spatial conflicts with protein atoms, subsequently utilizing a clustering algorithm to ascertain whether these regions constitute potential binding pockets. Alpha spheres were designated with radii ranging from 3.4Å to 6.2Å, with a prerequisite of at least 15 alpha spheres for a region to be considered a pocket. […]
PepNN evaluated each amino acid for its potentiality as a peptide binding site. […]

[2] = test system: Gram-negative bacteria; settings: cited from earlier work
From the text: Furthermore, conjugating the R9 peptide to antimicrobial peptides enhances antibacterial activity, particularly increasing effectiveness against Gram-negative bacteria.[49–51] ...

[3] = test system: E. coli W3110; experiment: Propidium iodide (PI) assay of membrane permeability; assay type: cell-based, Escherichia coli; settings: E. coli W3110 logarithmic-phase, 15 min treatment with 5 μM peptide, PI 25 μg/mL 15 min (Fig. 5A)
Protocol: Propidium Iodide (PI) assay
Thaw the previously preserved E. coli W3110 cells from the -80 °C freezer. Scrape a small amount and inoculate it into 1 mL of LB liquid medium. Culture overnight in a 37°C shaker. Next day, inoculate the strain into fresh LB liquid medium at a 1:100 ratio and incubate at 37 °C until the OD600 reaches approximately 0.47 to 0.53. Take 100 μL of the E. coli W3110 cells and centrifuge for 2 min at 13,000 rpm. Discard the supernatant. For the untreated group, resuspend the cells in 100 μL of PBS. For the peptide treatment group, resuspend the cells in 99 μL of ddH2O and add 1 […]
μL of 0.5 mM of the different peptides. Mix thoroughly and let react for 15 min. After the treatment, take 80 μL of each sample and incubate with PI at a final concentration of 25 μg/mL for 15 min.
After incubation, wash the samples with the same amount of PBS, centrifuge, and resuspend at a 10-fold concentration. Observe the images using a Nikon Eclipse Ci-L Plus microscope. […]
Incubate overnight in a 37°C shaker. […]
Centrifuge again at
6100g for 10 min, discard the supernatant, and add 500 μL of ddH2O containing 2.5% glutaraldehyde. Resuspend and fix the cells overnight at 4°C. Centrifuge at 6100g for 10 min, remove the supernatant, and wash twice with ddH2O, letting it stand for 15 min each time, followed by centrifugation at 6100g for 10 min. Discard the supernatant. Dehydrate the sample with ethanol at concentration gradients of 30%, 60%, and 90%, without resuspension, centrifuging at 6100g for […]

nona-arginine [R9, reference compound]
morphological changes by scanning electron microscopy [1]: slight shrinkage and partial rupture
anti-Gram-negative bacterial activity [2]: low anti-Gram-negative bacterial activity
PI red fluorescence (cell membrane permeability) [3]: weak red fluorescence
